Source: the supplement of paper PMC6045584

How the values were obtained:
Assay in all cases: area under dose-response curve of surviving fraction (unscaled, Aref=0) (surviving fraction x log10(nM)); higher = more resistant
Conditions in all cases: exposure time: 5 days; dose range 0.5-1000 nM
[1] = compound: C[C@@H]1CN(CC(=O)Nc2ccc3c(c2)Cc2cccc(-c4cc(=O)cc(N5CCOCC5)o4)c2S3)C[C@H](C)O1
Procedure, shortened: (§1)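 Inhibitor was applied to tumour cell lines at eight concentrations (0.5 to 1000 nM) for five days in 384-well plates. Luminescence from CellTiter-Glo, scaled to DMSO-only wells, gave surviving fractions in three screens per line, and these were fitted by 3-parameter logistic regression with the drc R package. The area under the curve is an unscaled activity area. Aref was 0, and dose was on a log10 scale.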

BEZ-235 = compound: Cn1c(=O)n(-c2ccc(C(C)(C)C#N)cc2)c2c3cc(-c4cnc5ccccc5c4)ccc3ncc21 [BEZ-235]
Procedure, shortened: as §1

AFIMOXIFENE = compound: CC/C(=C(\c1ccc(O)cc1)c1ccc(OCCN(C)C)cc1)c1ccccc1 [AFIMOXIFENE]
Procedure, shortened: as §1

BMN-673 = compound: Cn1ncnc1[C@H]1c2n[nH]c(=O)c3cc(F)cc(c23)N[C@@H]1c1ccc(F)cc1 [BMN-673]
Procedure, shortened: as §1

IMATINIB = compound: Cc1ccc(NC(=O)c2ccc(CN3CCN(C)CC3)cc2)cc1Nc1nccc(-c2cccnc2)n1 [IMATINIB]
Procedure, shortened: as §1

[2] = compound: COc1ccc(-c2cc3c(C)nc(N)nc3n([C@H]3CC[C@H](OCCO)CC3)c2=O)cn1
Procedure, shortened: as §1

MK-1775 = compound: C=CCn1c(=O)c2cnc(Nc3ccc(N4CCN(C)CC4)cc3)nc2n1-c1cccc(C(C)(C)O)n1 [MK-1775]
Procedure, shortened: as §1

VORINOSTAT = compound: O=C(CCCCCCC(=O)Nc1ccccc1)NO [VORINOSTAT]
Procedure, shortened: as §1

NILOTINIB = compound: Cc1cn(-c2cc(NC(=O)c3ccc(C)c(Nc4nccc(-c5cccnc5)n4)c3)cc(C(F)(F)F)c2)cn1 [NILOTINIB]
Procedure, shortened: as §1

LENVATINIB = compound: COc1cc2nccc(Oc3ccc(NC(=O)NC4CC4)c(Cl)c3)c2cc1C(N)=O [LENVATINIB]
Procedure, shortened: as §1

CABOZANTINIB = compound: COc1cc2nccc(Oc3ccc(NC(=O)C4(C(=O)Nc5ccc(F)cc5)CC4)cc3)c2cc1OC [CABOZANTINIB]
Procedure, shortened: as §1

BLEOMYCIN = compound: Cc1c(N)nc([C@H](CC(N)=O)NC[C@H](N)C(N)=O)nc1C(=O)N[C@H](C(=O)N[C@H](C)[C@@H](O)[C@H](C)C(=O)N[C@H](C(=O)NCCc1nc(-c2nc(C(=O)NCCC[S+](C)C)cs2)cs1)[C@@H](C)O)[C@@H](OC1OC(CO)C(O)C(O)C1OC1OC(CO)C(O)C(OC(N)=O)C1O)c1cnc[nH]1 [BLEOMYCIN]
Procedure, shortened: as §1

[3] = compound: CCc1cc(Nc2nccc(-c3c(-c4ccc(OC)c(C(=O)Nc5c(F)cccc5F)c4)nc4ccccn34)n2)c(OC)cc1N1CCC(N2CCN(S(C)(=O)=O)CC2)CC1
Procedure, shortened: as §1

[4] = compound: C[C@H](CN(C)C)Oc1nc(Nc2cc3cccc(Cl)c3cn2)cnc1C#N
Procedure, shortened: as §1

Test System | area under dose-response curve [1] | area under dose-response curve (BEZ-235) | area under dose-response curve (AFIMOXIFENE) | area under dose-response curve (BMN-673) | area under dose-response curve (IMATINIB) | area under dose-response curve [2] | area under dose-response curve (MK-1775) | area under dose-response curve (VORINOSTAT) | area under dose-response curve (NILOTINIB) | area under dose-response curve (LENVATINIB) | area under dose-response curve (CABOZANTINIB) | area under dose-response curve (BLEOMYCIN) | area under dose-response curve [3] | area under dose-response curve [4]
22RV1 PROSTATE | 3.54 | 2.09 | 3.57 | 2.4 | 3.51 | 1.98 | 2.97 | 3.27 | 3.59 | 3.44 | 3.33 | 2.95 |  | 
93VU HEADNECK |  | 2.65 | 4.12 |  | 3.93 | 2.13 | 2.31 | 3.25 |  | 3.67 | 3.14 | 2.25 | 3.51 | 3.44
143B BONE | 3.28 | 2.55 |  |  |  | 2.78 | 2.71 | 3.26 |  | 3.51 |  | 3.15 | 3.38 | 
A549 LUNG | 3.58 | 2.55 | 3.56 | 3.58 | 3.65 | 2.8 | 3.15 |  | 3.59 | 3.51 | 3.3 | 3.18 | 3.29 | 3.25
BT20 BREAST |  | 2.35 | 4.62 | 2.9 | 4.15 | 2.52 | 2.77 |  | 3.28 | 3.71 | 3.73 | 2.25 |  | 4.01
BT549 BREAST | 2.89 | 2.29 | 3.21 | 2.53 | 3.76 | 2.15 | 2.27 |  | 3.42 | 3.7 | 3.6 | 1.6 | 3.58 | 2.68
C33A CERVIX | 3.44 | 2.24 | 3.76 | 1.82 | 3.47 | 2.1 | 2.33 |  | 3.63 | 3.26 | 2.65 | 2.02 | 2.94 | 3
CADOES1 SOFT TISSUE | 3.25 | 2.12 |  | 1.72 | 3.08 | 2.15 | 2.76 | 2.16 |  | 2.86 | 3.02 | 2.17 | 3.13 | 2.48
CAL72 BONE | 3.2 | 2.3 | 3.6 | 3.14 | 3.71 | 2.62 | 2.65 | 3.52 | 3.29 |  | 3.56 | 3.13 | 3.56 | 2.93
CME SYNOVIAL |  |  | 4.56 | 0.962 |  | 2.55 |  |  |  |  | 3.92 | 1.51 |  | 4.25
DU4475 BREAST | 3.52 | 1.94 | 2.84 | 1.63 | 3.54 | 1.53 | 2.29 |  | 3.45 |  | 2.93 | 2.19 | 3.05 | 3.04
HCC202 BREAST | 3.04 | 2.62 |  |  |  | 2.16 | 2.67 | 2.75 |  |  |  |  | 4 | 
HCC1395 BREAST | 3.09 | 3.18 | 3.9 | 2.84 | 4.07 | 2.91 | 3.14 | 3.8 | 3.22 | 3.23 | 3.98 | 2.73 | 3 | 
HCC1806 BREAST | 3.06 | 2.63 |  | 1.26 | 3.65 | 2.72 | 2.16 | 3 | 2.94 | 3.49 | 3.61 | 1.54 | 3.26 | 2.4
HCC1954 BREAST | 2.82 | 2.11 |  |  | 3.5 | 2.09 | 2.32 | 3.06 | 2.74 | 3.2 | 3.42 | 1.38 | 3.23 | 3.14
HOSMNG BONE | 3.27 | 2.74 | 3.26 | 3.19 | 3.46 | 2.74 | 2.85 |  | 3.21 | 3.46 | 2.68 |  | 3.35 | 3.22
KPD BONE | 3.21 | 2.12 | 3.52 | 1.92 | 3.49 | 1.97 | 2.7 |  | 3.25 |  | 3.33 | 2.48 | 3.24 | 2.98
MDAMB157 BREAST | 3.25 | 2.72 |  | 2.09 |  | 2.35 | 2.07 | 3.15 | 3.49 | 3.03 | 3.09 | 2.5 | 3.26 | 2.75
MDAMB453 BREAST | 3.16 | 2.25 |  | 2.58 | 3.62 | 2.17 | 2.78 | 3.13 | 3.15 | 3.12 | 3.43 |  | 3.61 | 3.06
MDAMB468 BREAST | 3.17 | 2.83 | 3.58 | 2.09 | 3.53 | 2.59 | 2.87 |  | 3.07 | 3.61 | 3.58 | 3.15 | 3.5 | 3.03
MFM223 BREAST | 3.36 | 2.45 | 3.79 | 3 | 3.93 | 2.27 | 2.48 | 3.21 | 3.16 | 2.7 | 3.65 | 2.64 | 3.77 | 
